Results: PMC5513037, “Examining the influence of specificity ligands and ATP-competitive ligands on the overall effectiveness of bivalent kinase inhibitors” (Proteome Science, 2017)

What was measured:
Assay in all cases: KAM-matrix competition in K562 lysate;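 on 0.001 uM KAM: median log10 fold change of treatment over DMSO control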;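 on 0.01 uM KAM: median log10 fold change of treatment over DMSO control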;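 on 0.1 uM KAM: median log10 fold change of treatment over DMSO control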;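 on 1 uM KAM: median log10 fold change of treatment over DMSO control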;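 on 10 uM KAM: median log10 fold change of treatment over DMSO control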
Format in all cases: binding
JAK3 = target: T1, JAK3 (Homo sapiens, UniProt P52333);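 on 0.001 uM KAM: median log10 fold change of treatment over DMSO control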;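 on 0.01 uM KAM: median log10 fold change of treatment over DMSO control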;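 on 0.1 uM KAM: median log10 fold change of treatment over DMSO control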;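 on 1 uM KAM: median log10 fold change of treatment over DMSO control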;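 on 10 uM KAM: median log10 fold change of treatment over DMSO control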
T1 construct: endogenous in cells; host or cells: K562
T1 sequence (P52333 1-1124): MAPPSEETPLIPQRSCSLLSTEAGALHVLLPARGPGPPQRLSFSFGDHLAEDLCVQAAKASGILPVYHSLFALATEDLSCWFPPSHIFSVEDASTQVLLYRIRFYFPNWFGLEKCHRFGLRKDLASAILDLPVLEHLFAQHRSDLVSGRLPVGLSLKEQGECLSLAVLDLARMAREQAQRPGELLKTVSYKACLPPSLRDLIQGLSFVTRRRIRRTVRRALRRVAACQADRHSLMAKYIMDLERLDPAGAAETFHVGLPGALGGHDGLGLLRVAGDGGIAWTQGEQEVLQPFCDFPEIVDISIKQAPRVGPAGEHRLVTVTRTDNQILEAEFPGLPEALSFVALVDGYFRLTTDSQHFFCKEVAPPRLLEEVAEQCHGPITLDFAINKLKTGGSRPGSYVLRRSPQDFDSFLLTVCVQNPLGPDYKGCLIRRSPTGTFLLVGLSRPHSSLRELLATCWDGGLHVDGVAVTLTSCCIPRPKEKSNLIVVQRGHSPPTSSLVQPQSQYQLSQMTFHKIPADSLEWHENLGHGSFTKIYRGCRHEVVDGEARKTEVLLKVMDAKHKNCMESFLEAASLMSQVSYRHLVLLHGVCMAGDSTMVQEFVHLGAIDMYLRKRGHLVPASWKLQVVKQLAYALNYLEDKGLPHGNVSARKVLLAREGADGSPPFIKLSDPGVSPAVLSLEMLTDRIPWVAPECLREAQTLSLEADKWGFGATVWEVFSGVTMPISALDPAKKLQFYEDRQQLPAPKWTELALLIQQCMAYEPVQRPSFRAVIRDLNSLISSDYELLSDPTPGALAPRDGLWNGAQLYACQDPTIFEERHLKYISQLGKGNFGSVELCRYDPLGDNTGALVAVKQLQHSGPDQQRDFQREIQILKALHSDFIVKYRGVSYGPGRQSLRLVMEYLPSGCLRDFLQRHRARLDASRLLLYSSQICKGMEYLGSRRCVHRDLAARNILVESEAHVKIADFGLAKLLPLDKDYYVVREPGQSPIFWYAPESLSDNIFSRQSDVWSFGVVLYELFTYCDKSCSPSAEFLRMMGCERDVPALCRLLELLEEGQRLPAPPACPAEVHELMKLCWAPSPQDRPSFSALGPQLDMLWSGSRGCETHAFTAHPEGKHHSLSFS
Method: (§1) Supplement 12953_2017_125_MOESM1_ESM.zip/MS_Supp Info.xlsx, sheet "KAM" | column: 10 uM KAM; 1 uM KAM; 0.1 uM KAM; 0.01 uM KAM; 0.001 uM KAM; RB50

NEK2 = target: T2, NEK2 (Homo sapiens, UniProt P51955);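 on 0.001 uM KAM: median log10 fold change of treatment over DMSO control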;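 on 0.01 uM KAM: median log10 fold change of treatment over DMSO control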;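 on 0.1 uM KAM: median log10 fold change of treatment over DMSO control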;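 on 1 uM KAM: median log10 fold change of treatment over DMSO control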;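 on 10 uM KAM: median log10 fold change of treatment over DMSO control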
T2 construct: endogenous in cells; host or cells: K562
T2 sequence (P51955 1-445): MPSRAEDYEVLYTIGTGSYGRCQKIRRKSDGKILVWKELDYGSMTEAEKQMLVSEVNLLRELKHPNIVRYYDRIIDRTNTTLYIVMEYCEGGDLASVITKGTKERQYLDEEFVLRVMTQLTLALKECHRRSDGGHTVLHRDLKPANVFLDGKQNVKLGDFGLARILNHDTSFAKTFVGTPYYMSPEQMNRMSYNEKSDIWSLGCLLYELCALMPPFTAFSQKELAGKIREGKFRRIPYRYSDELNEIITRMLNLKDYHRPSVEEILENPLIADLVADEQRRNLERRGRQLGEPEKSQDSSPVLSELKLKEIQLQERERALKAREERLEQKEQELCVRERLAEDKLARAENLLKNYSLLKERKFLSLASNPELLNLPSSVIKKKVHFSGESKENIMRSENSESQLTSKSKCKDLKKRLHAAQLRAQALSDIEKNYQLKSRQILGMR
Method: as §1

MAPK6 = target: T3, MAPK6 (Homo sapiens, UniProt Q16659)
T3 construct: endogenous in cells; host or cells: K562
Method: as §1

[1] = KAM 0.001-10 uM, read-out: RB50 (the source's name)

T3 sequence (Q16659 whole entry): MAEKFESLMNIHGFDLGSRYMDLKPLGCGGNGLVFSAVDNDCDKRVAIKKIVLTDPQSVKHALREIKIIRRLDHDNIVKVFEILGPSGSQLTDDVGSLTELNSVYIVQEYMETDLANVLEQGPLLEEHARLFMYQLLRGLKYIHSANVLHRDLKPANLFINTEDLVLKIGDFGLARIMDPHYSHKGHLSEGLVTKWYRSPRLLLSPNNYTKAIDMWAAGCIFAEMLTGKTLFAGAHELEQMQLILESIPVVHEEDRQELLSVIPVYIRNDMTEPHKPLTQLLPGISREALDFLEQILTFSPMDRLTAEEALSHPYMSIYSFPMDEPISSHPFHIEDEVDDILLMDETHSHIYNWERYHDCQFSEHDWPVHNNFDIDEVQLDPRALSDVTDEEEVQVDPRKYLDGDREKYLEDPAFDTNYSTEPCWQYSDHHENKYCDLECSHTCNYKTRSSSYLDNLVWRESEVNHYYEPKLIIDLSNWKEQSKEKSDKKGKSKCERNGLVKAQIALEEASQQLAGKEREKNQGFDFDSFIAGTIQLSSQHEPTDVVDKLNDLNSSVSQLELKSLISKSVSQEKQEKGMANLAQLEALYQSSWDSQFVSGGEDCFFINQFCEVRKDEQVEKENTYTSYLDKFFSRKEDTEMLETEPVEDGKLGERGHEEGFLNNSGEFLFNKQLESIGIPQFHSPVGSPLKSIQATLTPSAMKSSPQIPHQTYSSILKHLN

N#CCc1ccc(Nc2nc(NCCCN)cc(Nc3cc(C4CC4)[nH]n3)n2)cc1 [KAM]
IC50 (JAK3; [1]): > 10 µM
0.001 uM KAM (JAK3; relative to 0 uM KAM = 0): -0.04271
0.01 uM KAM (JAK3; relative to 0 uM KAM = 0): -0.0544
0.1 uM KAM (JAK3; relative to 0 uM KAM = 0): -0.1188
1 uM KAM (JAK3; relative to 0 uM KAM = 0): -0.2952
10 uM KAM (JAK3; relative to 0 uM KAM = 0): -0.1976
IC50 (NEK2; [1]): 5.87 µM
0.001 uM KAM (NEK2; relative to 0 uM KAM = 0): 0.005896
0.01 uM KAM (NEK2; relative to 0 uM KAM = 0): 0.02457
0.1 uM KAM (NEK2; relative to 0 uM KAM = 0): -0.07556
1 uM KAM (NEK2; relative to 0 uM KAM = 0): -0.1875
10 uM KAM (NEK2; relative to 0 uM KAM = 0): -0.3106
median Log10 fold change (MAPK6; 0.001 uM KAM): 0.01888
median Log10 fold change (MAPK6; 0.01 uM KAM): 0.003428
median Log10 fold change (MAPK6; 0.1 uM KAM): -0.1658
median Log10 fold change (MAPK6; 1 uM KAM): -0.3554
median Log10 fold change (MAPK6; 10 uM KAM): -0.4572
IC50 (MAPK6; read-out: RB50 (the source's name)): 0.763 µM
